Data set [1] relates to Female Wistar rats. Kind of data set: Reserpine Tremor Test. The format is in vivo, rat. The following applies: route sc, dose 2.5 mg/kg, 90 min before testing; reserpine 2 mg/kg iv 60 min before testing; 15-min session; number of rats out of rats tested. How it is done:
Female Wistar rats weighing 200-220 g were used. These test animals were food deprived for 24 hours. Said rats were pretreated orally (po) or subcutaneously (sc) with a test compound at 90 minutes before testing. This pretreatment was followed by an intravenous injection of 2 mg/kg reserpine at 60 minutes before testing. Two control groups of 20 rats each were included in the experiment. The first control group consisted of rats that were only treated with a saline solution and the second control group consisted of animals which only received a saline reserpine solution. At the start of the test, the rats were individually placed in specially designed test cages and tremor activity was measured continuously during a 15-min test session. These test cages consisted of a plexiglass chamber. The floor of the test cage consisted of a plexiglass plate which was centered underneath the cage. […] The floor plate rested at its four corners on a rubber point of support. Two pieces of piezo-film were tied up next to each other underneath the middle of the floor plate. Said piezo-films were connected to an amplifier. The test cage was situated in a sound and light attenuating out box, being constantly illuminated and air-ventilated. The piezo-electric response, produced by deformation of the cage floor was amplified by an individual amplifier for each piezo-film separately. […]

With `Cc1nc2ccccn2c(=O)c1CCN1CCC(c2coc3cc(F)ccc23)CC1` [Co. No. 1, 3-[2-[4-(6-fluoro-3-benzofuranyl)-1-piperidinyl]ethyl]-2-methyl-4H-pyrido-[1,2-a]pyrimidin-4-one], the melting point – broadly, the temperature of the solid-liquid transition – was 159.8 °C. The “rats showing a tremor activity below 35 counts” value in data set [1] is 3.

These data come from patent publication US6348457B1, “4-[3-benzofuranyl]piperidinyl and 4-[3-benzothienyl]piperidinyl derivatives” (Janssen Pharmaceutica N.V., priority 1922, dated 2002).
